From publication PMC4595804, “A strategy to discover decoy chemokine ligands with an anti-inflammatory activity” (Scientific Reports, 2015)

Legend:
Type in all cases: cell-based
CXCL8 = CXCL8 (Homo sapiens, UniProt P10145); assay: Selectivity, neutraligand protocol, EGFP-CXCR2+ HEK cells; conditions: 10 μM compound, 5 nM CXCL8, EGFP-CXCR2+ HEK cells
Method: Figure 6 (a) Selectivity of CCL17 and CCL22 neutraligands towards 10 chemokines according to the “neutraligand protocol”. […] Each column represents the mean (block) ± SD (bars) of n = 3 experiments performed in triplicate. *p < 0.05; **p < 0.01; ***p < 0.005 as compared to chemokine + DMSO. (b) Chemokine neutraligands inhibited CCR4 endocytosis induced by CCL22 or CCL17. EGFP-CCR4^+ HEK cells were incubated for 30 min with DMSO or chemokine (100 nM CCL22 or CCL17) in the presence or absence of test compounds. […] Cell surface EGFP-tagged CCR4 receptors were measured by EGFP antibody labeling and flow cytometry analysis. CCR4 internalization was expressed as a percentage of total receptor surface expression calculated using control cells incubated with DMSO (100%). […] The number of migrating cells in the presence of chemokine and compounds were expressed as the corresponding percentages. Results were analyzed by fitting the experimental curves (% of migrating cells vs log compound concentration) using the Kaleidagraph software program, and the corresponding IC50 values were calculated. […]
Dye loaded cells were placed in the FlexStation 3 (Molecular Devices). Calcium mobilization was measured at 401 and 475 nm emission fluorescence after excitation at 355 nm. […] Raw fluorescence data (at 401 and 475 nm) were exported and the ratio 401/475 was calculated. […]

CXCL10 = target: T1, CXCL10 (Homo sapiens, UniProt P02778); assay: Selectivity, neutraligand protocol, EGFP-CXCR3+ HEK cells; conditions: 10 μM compound, 5 nM CXCL10, EGFP-CXCR3+ HEK cells
T1 construct: (His)6; made in house; host or cells: E. coli BL21 (DE3)
Method: Figure 6 (a) Selectivity of CCL17 and CCL22 neutraligands towards 10 chemokines according to the “neutraligand protocol”. […] Each column represents the mean (block) ± SD (bars) of n = 3 experiments performed in triplicate. *p < 0.05; **p < 0.01; ***p < 0.005 as compared to chemokine + DMSO. (b) Chemokine neutraligands inhibited CCR4 endocytosis induced by CCL22 or CCL17. EGFP-CCR4^+ HEK cells were incubated for 30 min with DMSO or chemokine (100 nM CCL22 or CCL17) in the presence or absence of test compounds. […] Cell surface EGFP-tagged CCR4 receptors were measured by EGFP antibody labeling and flow cytometry analysis. CCR4 internalization was expressed as a percentage of total receptor surface expression calculated using control cells incubated with DMSO (100%). Each column represents the mean (block) ± SD (bars) of n = 3 experiments performed in triplicate. *p < 0.05; **p < 0.01; ***p < 0.005 as compared to chemokine alone. (c,d) Inhibition of CCL17 and CCL22- induced CCR4^+HUT78 T cell chemotaxis by neutraligands. […] The number of migrating cells induced by a chemokine alone was set at 100% migration. The number of migrating cells in the presence of chemokine and compounds were expressed as the corresponding percentages. Results were analyzed by fitting the experimental curves (% of migrating cells vs log compound concentration) using the Kaleidagraph software program, and the corresponding IC50 values were calculated. Means and SD values of triplicates were plotted.
Human cDNAs encoding CCR4 and CXCR3 receptors were cloned in pIRES plasmid (Clontech) while cDNAs encoding CCR2, CCR5, CXCR2 and CXCR4 receptors were cloned in pCEP4 vector (Life technologies). […] Stably EGFP-CCR4^+ HEK cells were selected for 5 weeks with geneticin (G-418, 600μg/ml), and resulting cell clones were checked by fluorescence microscopy and FACS analysis. […]
Dye loaded cells were placed in the FlexStation 3 (Molecular Devices). Calcium mobilization was measured at 401 and 475 nm emission fluorescence after excitation at 355 nm. […] Raw fluorescence data (at 401 and 475 nm) were exported and the ratio 401/475 was calculated. The calcium response values (height of peak response over baseline) were determined. […] The Z’ factor[29] was calculated according to the following equation: Z’ = 1-(3SD+ + 3SD−)/|Ave+ − Ave−|, where SD+ and Ave+ are respectively the standard deviation and the mean value of the positive controls (chemokine + DMSO), while SD− and Ave− are respectively the standard deviation and the mean value of the negative controls (HEPES-BSA (0.1%) mixed with DMSO, or cells mixed with C-021). Hit molecules were confirmed by performing concentration-response curves and their half maximal inhibitory concentration (IC50) values were calculated using the Kaleidagraph software.

CCR4 = target: T2, CCR4 (Homo sapiens, UniProt P51679); assay: EGFP-CCR4 receptor surface level / endocytosis on EGFP-CCR4+ HEK cells; conditions: without chemokine, data not shown
T2 construct: signal peptide fused to EGFP (N); expressed in transfected cells; host or cells: HEK-293
T2 sequence (P51679 1-360): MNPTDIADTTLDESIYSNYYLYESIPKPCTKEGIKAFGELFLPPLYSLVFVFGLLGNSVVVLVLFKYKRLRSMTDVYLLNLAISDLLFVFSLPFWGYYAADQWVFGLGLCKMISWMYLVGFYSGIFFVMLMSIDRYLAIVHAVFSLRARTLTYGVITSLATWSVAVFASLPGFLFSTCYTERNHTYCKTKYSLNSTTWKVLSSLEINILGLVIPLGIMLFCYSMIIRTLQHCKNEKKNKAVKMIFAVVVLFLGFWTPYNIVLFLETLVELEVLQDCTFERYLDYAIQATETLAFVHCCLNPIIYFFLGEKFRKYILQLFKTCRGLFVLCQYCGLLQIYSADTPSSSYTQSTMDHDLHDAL
Method: CCR4 levels were evaluated by flow cytometry (FACSCalibur, BD biosciences) using cell surface labeling of EGFP with monoclonal mouse anti-GFP (Roche Applied Science; 1:100 dilution) as primary antibody and R-phycoerythrin conjugated AffiniPure F (ab’)2 fragment goat anti-mouse (Immunotech; 1/100) as secondary antibody.

T1 sequence (P02778 22-98): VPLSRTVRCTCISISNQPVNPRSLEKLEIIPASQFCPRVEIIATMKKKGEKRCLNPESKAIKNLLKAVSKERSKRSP
CXCL8, sequence (P10145 28-99 limits assumed): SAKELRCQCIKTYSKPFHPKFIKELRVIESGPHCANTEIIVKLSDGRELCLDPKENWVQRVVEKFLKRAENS

O=C(OCC(O)CO)c1ccccc1O (stereo not drawn) [GPN136, 2,3-dihydroxypropyl 2-hydroxybenzoate]
effect on calcium responses induced by CXCL8 (CXCL8): no effect
effect on calcium responses induced by CXCL10 (CXCL10): no effect
effect on CCR4 receptor surface level on its own (CCR4): Neither GPN279 nor GPN136 did alter

CC(C)=CCn1cnc2c1c(=O)n(C)c(=O)n2C [GPN279, 1,3-dimethyl-7-(3-methylbut-2-enyl)-1H-purine-2,6(3H, 7H)-dione]
effect on calcium responses induced by CXCL8 (CXCL8): no effect
effect on calcium responses induced by CXCL10 (CXCL10): no effect
effect on CCR4 receptor surface level on its own (CCR4): Neither GPN279 nor GPN136 did alter
